Tested on: HepG-2 cells
Assay: Whole genome bisulfite sequencing (WGBS), differentially methylated regions
Format: cell-based, human
Conditions: for DMR (Methylation %) UQCRC1 promoter region / DMR (Methylation %) VDAC2 promoter region / number of DMRs in promoter region, hyper-methylated / number of DMRs in promoter region, hypo-methylated / number of DMRs in promoter region, total / DMR (Methylation %) ADRA1A promoter region / DMR (Methylation %) ADRA1B promoter region / DMR (Methylation %) ADRA1 promoter region / DMR (Methylation %) BCL6 promoter region / DMR (Methylation %) CACNA1D promoter region / DMR (Methylation %) CALML3 promoter region / DMR (Methylation %) CALML4 promoter region / DMR (Methylation %) CAMKK2 promoter region / DMR (Methylation %) COX7B promoter region / DMR (Methylation %) COX8A promoter region / DMR (Methylation %) CPT1A promoter region / DMR (Methylation %) CPT1C promoter region / DMR (Methylation %) CREB3L4 promoter region / DMR (Methylation %) CYP1A1 promoter region / DMR (Methylation %) ESR2 promoter region / DMR (Methylation %) FBP1 promoter region / DMR (Methylation %) FGF1 promoter region / DMR (Methylation %) FGF8 promoter region / DMR (Methylation %) FGFR2 promoter region / DMR (Methylation %) LDHA promoter region / DMR (Methylation %) LDHAL6A promoter region / DMR (Methylation %) LDHC promoter region / DMR (Methylation %) LEP promoter region / DMR (Methylation %) MIR29A promoter region / DMR (Methylation %) MIRLET7B promoter region / DMR (Methylation %) MTOR promoter region / DMR (Methylation %) NTRK3 promoter region / DMR (Methylation %) PDHA2 promoter region / DMR (Methylation %) PDHB promoter region / DMR (Methylation %) PHKG1 promoter region / DMR (Methylation %) PPARG promoter region / DMR (Methylation %) SDHA promoter region / DMR (Methylation %) SDHB promoter region / DMR (Methylation %) SPHK2 promoter region: 20 μM CA
Procedure: After culturing HepG-2 cells in DMEM medium with HG for 72 hours followed by treating with 20 μM CA for 0, 3, 6, 12, and 24 hours, genomic DNA from 5×10^7 cells were extracted using QIAamp® DNA Mini Kit (QIAGEN, Hilden, Germany). Each sample, 6 μg, was sent to CD Genomics Co., Ltd (New York, USA) for analysis of WGBS. Total RNA was isolated using the Promega SV total RNA isolation system (Madison, WI, USA) with DNase treatment. Each sample, 2 μg, were sent to CD Genomics Co., Ltd (New York, USA) for analysis of RNA sequencing. The same samples, 2 μg, was used for the first-strand cDNA synthesis as recommended by the manufacturer (Invitrogen, Carlsbad, CA). RT-qPCR was performed using SYBR Green as the indicator on ABI 7500 Fast Real-Time PCR System (Applied Biosystems, Foster City, CA). Amplifications of j-actin or GAPDH were used as internal controls. Relative messenger RNA (mRNA) expression was quantified with the comparative cycle threshold (Ct) method using a sutiable primer set and was expressed as 2-ΔΔCt as described previously.
Each sample, 1 μg of genomic DNA was fragmented by sonication to a mean size of approximately 200-400 bp, and subsequently used for WGBS library construction using Acegen Bisulfite-Seq Library Prep Kit (Acegen) following the manufacturer's instructions. The methylated adapter-ligated DNAs were purified using 0.8×Agencourt AMPure™ XP magnetic beads and subjected to bisulfite conversion by ZYMO EZ DNA Methylation-Gold™ Kit (Zymo Research Corporation, CA, USA). The converted DNAs were then amplified using 25 μl KAPA HiFi™ HotStart Uracil+ ReadyMix (2×) and 8-bp index primers with a final concentration of 1 μM each. The constructed WGBS libraries were then analyzed by Agilent 2100 Bioanalyzer and quantified by a Qubit fluorometer with Quant-iT™ dsDNA HS Assay Kit (Invitrogen), and finally sequenced on Illumina® Hiseq X™ Ten sequencer. After the preparation of the library, Qubit 2.0 and Agilent 2100 were used respectively to detect the concentration of the library and the Insert Size, and the effective concentration (>2 nM) of the library was quantitatively determined by Q-PCR to ensure the library quality.
Samples were sequenced using the Illumina® HiSeq sequencing platform. Raw data generated on the sequencing platform contained a small percentage of low-quality data, which was then filtered to get high-quality data. Bsmap software was used to perform alignments of bisulfite-treated reads to a reference genome (GRCh37). Metilene software was used to identify differentially methylated regions (DMRs). DAVID software (website located at david.ncifcrf.gov/) was used to test the statistical enrichment of DMR related genes in the Gene Ontology (GO) and Kyoto Encyclopedia of Genes and Genomes (KEGG) pathways.

CC(CCC[C@@H](C)[C@H]1CC[C@H]2[C@@H]3CC=C4C[C@@H](O)CC[C@]4(C)[C@H]3CC[C@]12C)C(=O)O (stereo partly drawn) [CA, 3β-hydroxy-5-cholestenoic acid]
DMR (Methylation %) UQCRC1 promoter region (6 h): −56.12%
DMR (Methylation %) VDAC2 promoter region (6 h): −40.06%
number of DMRs in promoter region, hyper-methylated (6 hours): 1,749
number of DMRs in promoter region, hypo-methylated (6 hours): 22,621
number of DMRs in promoter region, total (6 hours): 24,370
DMR (Methylation %) ADRA1A promoter region (12 h): −30.57%
DMR (Methylation %) ADRA1B promoter region (12 h): 0%
DMR (Methylation %) ADRA1 promoter region (12 h): −30.57%
DMR (Methylation %) BCL6 promoter region (12 h): −33.25%
DMR (Methylation %) CACNA1D promoter region (12 h): 0%
DMR (Methylation %) CALML3 promoter region (12 h): −30.32%
DMR (Methylation %) CALML4 promoter region (12 h): −21.6%
DMR (Methylation %) CAMKK2 promoter region (12 h): −23.88%
DMR (Methylation %) COX7B promoter region (12 h): 0%
DMR (Methylation %) COX8A promoter region (12 h): 0%
DMR (Methylation %) CPT1A promoter region (12 h): −16.93%
DMR (Methylation %) CPT1C promoter region (12 h): −24.72%
DMR (Methylation %) CREB3L4 promoter region (12 h): 0%
DMR (Methylation %) CYP1A1 promoter region (12 h): 0%
DMR (Methylation %) ESR2 promoter region (12 h): −28.97%
DMR (Methylation %) FBP1 promoter region (12 h): 0%
DMR (Methylation %) FGF1 promoter region (12 h): −48.58%
DMR (Methylation %) FGF8 promoter region (12 h): −37.87%
DMR (Methylation %) FGFR2 promoter region (12 h): 0%
DMR (Methylation %) LDHA promoter region (12 h): −36.43%
DMR (Methylation %) LDHAL6A promoter region (12 h): 0%
DMR (Methylation %) LDHC promoter region (12 h): 0%
DMR (Methylation %) LEP promoter region (12 h): −62.7%
DMR (Methylation %) MIR29A promoter region (12 h): −22.09%
DMR (Methylation %) MIRLET7B promoter region (12 h): 0%
DMR (Methylation %) MTOR promoter region (12 h): −27.13%
DMR (Methylation %) NTRK3 promoter region (12 h): −53.95%
DMR (Methylation %) PDHA2 promoter region (12 h): −28.93%
DMR (Methylation %) PDHB promoter region (12 h): 0%
DMR (Methylation %) PHKG1 promoter region (12 h): −24.54%
DMR (Methylation %) PPARG promoter region (12 h): −27.41%
DMR (Methylation %) SDHA promoter region (12 h): 0%
DMR (Methylation %) SDHB promoter region (12 h): −38.35%
DMR (Methylation %) SPHK2 promoter region (12 h): −18.02%
DMR (Methylation %) UQCRC1 promoter region (12 h): −23.36%
DMR (Methylation %) VDAC2 promoter region (12 h): −19.71%
number of DMRs in promoter region, hyper-methylated (12 hours): 1,891
number of DMRs in promoter region, hypo-methylated (12 hours): 23,813
number of DMRs in promoter region, total (12 hours): 25,704
DMR (Methylation %) ADRA1A promoter region (24 h): −30.81%
DMR (Methylation %) ADRA1B promoter region (24 h): 0%
DMR (Methylation %) ADRA1 promoter region (24 h): −30.81%
DMR (Methylation %) BCL6 promoter region (24 h): −31.52%
DMR (Methylation %) CACNA1D promoter region (24 h): 0%
DMR (Methylation %) CALML3 promoter region (24 h): −26.91%
DMR (Methylation %) CALML4 promoter region (24 h): −21%
DMR (Methylation %) CAMKK2 promoter region (24 h): 0%
DMR (Methylation %) COX7B promoter region (24 h): 0%
DMR (Methylation %) COX8A promoter region (24 h): −34.15%
DMR (Methylation %) CPT1A promoter region (24 h): −29.33%
DMR (Methylation %) CPT1C promoter region (24 h): −24.09%
DMR (Methylation %) CREB3L4 promoter region (24 h): −35.93%
DMR (Methylation %) CYP1A1 promoter region (24 h): −27.04%
DMR (Methylation %) ESR2 promoter region (24 h): −24.69%
DMR (Methylation %) FBP1 promoter region (24 h): −28.62%
DMR (Methylation %) FGF1 promoter region (24 h): 0%
DMR (Methylation %) FGF8 promoter region (24 h): 0%
DMR (Methylation %) FGFR2 promoter region (24 h): −24.29%
DMR (Methylation %) LDHA promoter region (24 h): −32.94%
DMR (Methylation %) LDHAL6A promoter region (24 h): −22.36%
DMR (Methylation %) LDHC promoter region (24 h): −31.77%
DMR (Methylation %) LEP promoter region (24 h): 0%
DMR (Methylation %) MIR29A promoter region (24 h): −26.93%
DMR (Methylation %) MIRLET7B promoter region (24 h): −24.75%
DMR (Methylation %) MTOR promoter region (24 h): 0%
DMR (Methylation %) NTRK3 promoter region (24 h): −53.82%
DMR (Methylation %) PDHA2 promoter region (24 h): −38.56%
DMR (Methylation %) PDHB promoter region (24 h): −26.74%
DMR (Methylation %) PHKG1 promoter region (24 h): −33.52%
DMR (Methylation %) PPARG promoter region (24 h): −27.57%
DMR (Methylation %) SDHA promoter region (24 h): −23.5%
DMR (Methylation %) SDHB promoter region (24 h): 0%
DMR (Methylation %) SPHK2 promoter region (24 h): −45.29%
DMR (Methylation %) UQCRC1 promoter region (24 h): −26.32%
DMR (Methylation %) VDAC2 promoter region (24 h): −26.13%
number of DMRs in promoter region, hyper-methylated (24 hours): 1,594
number of DMRs in promoter region, hypo-methylated (24 hours): 26,762
number of DMRs in promoter region, total (24 hours): 28,356
number of genes with demethylation of 5 mCpG to CpG in promoter regions (HepG-2 cells): over 7,000
